In patent US20200345010A1, “FUNGICIDAL OXADIAZOLES” (FMC Corporation, priority 2019, published 2020):
Marks after values point to notes of the source that are not given here.

What was measured:
[1] = tested on: Phakopsora pachyrhizi; assay: Test A: Asian soybean rust control on soybean seedlings; type: in vivo; details: 10 ppm test suspension; soybean seedlings sprayed the day before inoculation; 100 = 100% disease control, 0 = none
Description: (§1) General protocol for preparing test suspensions for Tests A-C: the test compounds were first dissolved in acetone in an amount equal to 3% of the final volume and then suspended at the desired concentration (in ppm) in acetone and purified water (50/50 mix by volume) containing 250 ppm of the surfactant PEG400 (polyhydric alcohol esters). The resulting test suspensions were then used in Tests A-C.
The test solution was sprayed to the point of run-off on soybean seedlings. The following day the seedlings were inoculated with a spore suspension of Phakopsora pachyrhizi (the causal agent of Asian soybean rust) and incubated in a saturated atmosphere at 22° C. for 24 h, and then moved to a growth chamber at 22° C. for 8 days, after which time visual disease ratings were made.
(§2) A rating of 100 indicates 100% disease control and a rating of 0 indicates no disease control (relative to the controls). A dash (-) indicates the compound was not tested.

[2] = tested on: Zymoseptoria tritici; assay: Test B: wheat leaf blotch control on wheat seedlings; type: in vivo; details: 250 ppm test suspension (asterisk); wheat seedlings sprayed the day before inoculation; 100 = 100% disease control, 0 = none
Description: as §1
(§3) The test solution was sprayed to the point of run-off on wheat seedlings. The following day the seedlings were inoculated with a spore suspension of Zymoseptoria tritici (the causal agent of wheat leaf blotch) and incubated in a saturated atmosphere at 24° C. for 48 h, and then moved to a growth chamber at 20° C. for 17 days, after which time disease ratings were made.
as §2

[3] = tested on: Puccinia recondita f. sp. tritici; assay: Test C: wheat leaf rust control on wheat seedlings; type: in vivo; details: wheat seedlings sprayed the day before inoculation, 100 = 100% disease control, 0 = none
Description: as §1
as §3, with “Puccinia recondita f. sp.” for “Zymoseptoria”, “rust)” for “blotch)”, “20°” for “24°”, “24” for “48”, “7” for “17”
as §2

melting point	Compound	Test A disease control rating [1]	Test B disease control rating [2]	Test C disease control rating ([3]; 10 ppm test suspension)	Test C disease control rating ([3]; 50 ppm test suspension)
230 to 234 °C	O=S1(=Nc2ccc(-c3noc(C(F)(F)F)n3)cc2)c2ccccc2-c2ccccc21 [Compound 38]	0%	1* %	0%	–
120 to 124 °C	O=S1(=NCc2ccc(-c3noc(C(F)(F)F)n3)cc2)c2ccccc2-c2ccccc21 [Compound 41]	97%	86* %	86%	–
58 to 63 °C	O=S1(=NCc2ccc(-c3noc(C(F)(F)F)n3)cc2)CCCC1 [Compound 51]	100%	52* %	–	100** %
